Laboratory results: US20180353461A1, “USE OF CANNABINOIDS AS CERAMIDE-GENERATING ANTICANCER AGENTS IN TUMORS OF THE HEMATOPOIETIC AND LYMPHOID TISSUES” (priority 2014, published 2018)

Legend:
[1] = system: U266 cells; experiment: Western blot time course of apoptotic proteins in U266 cells; assay type: cell-based, human
Experimental: Protein analyses were performed by Western blot in several sets of assays: expression pattern of CBs-receptors in MM cell lines and primary cells, and time course after treatment with cannabinoids in MM cell lines. Time-course assays were performed at 0, 2, 6, 18 and 24 hours. Anyway, obtaining cell lysates was conducted according to a protocol adapted to phosphorylation-dependent signaling, described by Gilbert et al. (2002). Briefly, 10e7 cells per condition were harvested at indicated times, washed with iced-cold PBS and lysate in isotonic lysis buffer 30 min keeping on ice. Isotonic lysis buffer contained 2% ASB-14 (CalbioChem, San Diego, Calif., USA),1% Nonidet P-40 (Ipegal®), 137 mM NaCl, 20mM Tris-HCl pH 7.5 at 4° C. (all from Sigma-Aldrich), 2 mM Na3VO4, 20 mM NaF (New England BioLabs Inc., Ipswich, Mass., USA), 2 mM DTT (AppliChem, Darmstadt, Germany), protease inhibitor cocktail (Roche Diagnostics GmbH, Mannheim, Germany), and 10 ul Nuclease Mix (Amersham GE Healthcare, Uppsala, Sweden). After lysis, samples were centrifuged at 13,000×g for 5 min at 4° C., and supernatants collected. Protein concentration in samples was determined by Pierce® Microplate BCA Protein Assay kit-Reducing Agent Compatible (Thermo Fisher Scientific). Before loading the samples in the gel, they were diluted in loading sample buffer (0.125 M Tris-HCl pH 6.8, 4% SDS, 20% glycerol, 0.02% Bromophenol Blue, 200 mM DTT) and the mixture was heated at 70° C. for 5 min in a thermoblock (LabNet International, N.J., USA).
Samples (15-25 ug/lane) were subjected to SDS/PAGE in pre-cast polyacrylamide gels AnykD (Bio-Rad Laboratories, Hercules, CA, USA) under reducing and denaturing conditions. Electrophoretic run was performed at a constant current of 15 mA per gel in a Mini-Protean® Tetra Cell (Bio-Rad Laboratories). Once proteins were separated by electrophoresis, were transferred onto PVDF membranes using Trans-Blot® Turbo™ System (Bio-Rad Laboratories). Electrotransference was conducted at constant amperage of 1.2 mA and at up to 25 V of voltage. The blotted membranes were then blocked with 2% bovine serum albumin [(BSA), Santa Cruz Biotechnology] in Tween-Tris buffer saline (TTBS) for 30 min with gentle agitation, and incubated overnight at 4° C. with corresponding primary antibody in TTBS. After twice washing with TTBS, membranes were incubated for 1-2 h at room temperature with suitable conjugated-HRP secondary antibody, and subjected to chemiluminescence detection using Western Blotting Luminol Reagent (Santa Cruz Biotechnology). […]
The antiproliferative effect of cannabinoids is mediated by apoptotic mechanisms. […] Next, we evaluated Casp-3 activation using an antibody that recognizes the active forms of Casp-3, this is, the 17 kDa- and 12 kDa-cleaved forms. […]

[2] = system: U266 cells; experiment: SPT expression, ceramide staining and SPT inhibition in U266 cells; assay type: cell-based, human
Experimental: Except if otherwise indicated, for the viability assays primary cells were incubated 18 hours, with vehicle (with <0.15% DMSO) or cannabinoid. Meanwhile, the time course assays cells were performed at 0, 2, 6, 18 and 24 h. For the analysis of SPT activity, cells were co-incubated for the first 6 hours with the SPT inhibitor, myriocin, and the cannabinoid, WIN-55 or JWH-133.
Samples (15-25 ug/lane) were subjected to SDS/PAGE in pre-cast polyacrylamide gels AnykD (Bio-Rad Laboratories, Hercules, CA, USA) under reducing and denaturing conditions. Electrophoretic run was performed at a constant current of 15 mA per gel in a Mini-Protean® Tetra Cell (Bio-Rad Laboratories). Once proteins were separated by electrophoresis, were transferred onto PVDF membranes using Trans-Blot® Turbo™ System (Bio-Rad Laboratories). Electrotransference was conducted at constant amperage of 1.2 mA and at up to 25 V of voltage. The blotted membranes were then blocked with 2% bovine serum albumin [(BSA), Santa Cruz Biotechnology] in Tween-Tris buffer saline (TTBS) for 30 min with gentle agitation, and incubated overnight at 4° C. with corresponding primary antibody in TTBS. After twice washing with TTBS, membranes were incubated for 1-2 h at room temperature with suitable conjugated-HRP secondary antibody, and subjected to chemiluminescence detection using Western Blotting Luminol Reagent (Santa Cruz Biotechnology). Loading controls were carried out with an anti-beta-actin and anti-beta-tubulin antibodies (Sigma-Aldrich). Blots were captured using a digital imaging system ImageQuant LAS 4000 (Amersham GE Healthcare) and transferred to a digital image processing software to analyze (Adobe Photoshop CS2, version 9.0., Adobe Systems Inc., San Jose, Calif.).
After cannabinoids and/or antagonists or SPT inhibitor treatment, primary cells and cell lines were washed with PBS, collected and placed on slides (Menzel-Glaser, Thermo Fisher Scientific). Cells were fixed in cold 4% paraformaldehyde for 10 min, treated with sodium borohydride and, permeabilized in 0.02% Triton X-100 in PBS with 10% normal donkey serum for blocking. Then, cells were incubated with the anti-CB1 or anti-CB2 receptor antibodies, anti-active-caspase3, anti-ceramide in blocking buffer overnight at 4° C. in a humid chamber (Simport, Beloeil, QC, Canada). After washing with PBS, samples were further incubated for 90 min with Alexa 647- or Alexa 488—conjugated donkey secondary antibody. After twice washing, first with PBS and then with 50 mM Tris-HCl (pH 7.4), and were dipped in a solution of Sudan Black B (Sigma-Aldrich) in 70% methanol for 5 min. After immunocytochemistry, slides were mounted using Fluoromount Aqueous Mounting Medium (Sigma-Aldrich). Preparations were examined with an Olympus BX-61 microscope (Olympus, Hamburg, Germany) equipped with appropriate filters: FITC/Cy2 (green fluorophores) 460-490 nm bandpass excitation filter and 510-550 nm bandpass emission filter; rhodamine/Cy3 (red fluorophores) 541-551 nm excitation and 572-607 nm emission; and Cy5 (deep red fluorophore) 615-635 nm excitation and 655 nm longpass emission. Digital images were acquired with CellSens Dimension Software (Olympus) and contrasted with Photoshop CS2 Software (Adobe Systems Inc). […]
De novo synthesis of ceramides contribute to the apoptotic process triggered by cannabinoids. […] To this end, we analyzed the expression of serine palmitoyltransferase (SPT), the enzyme that catalyses the rate-limiting step of ceramide synthesis de novo. […]

For CS(=O)(=O)O.Cc1c(C(=O)c2cccc3ccccc23)c2cccc3c2n1[C@H](CN1CCOCC1)CO3 [WIN-55, (R)-(+)-[2,3-dihydro-5-methyl-3-(4-morpholinylmethyl)-pyrrolo-[1,2,3]-1,4-benzoxazin-6-yl]-1-naphthalenylmethanone mesylate], the “time after exposure at which the 89 kDa PARP fragment became detectable” value ([1]; U266) was 2 h, the “expression of the two active-cleaved forms of Casp-3 (17 kDa and 12 kDa)” value ([1]; U266, time course) was “increased over time” and the “89 kDa fragment of PARP” value ([1]; U266, time course 0-24 h) was “increase”. The “full-length PARP” value ([1]; U266, time course 0-24 h) was “decrease”, the “SPT, 2 h after exposure” value ([2]; U266) was “moderate increase” and the “time at which SPT reached the maximal level” value ([2]; U266) was 18 h. The “ceramide by immunohistochemistry, compared to untreated cells” value ([2]; U266, 50 uM, 18 hours) was “remarkable increase” and the “SPT expression level in myelomatous cells” value ([2]; U266, WIN-55 50 uM) was “enhanced”.
